Values after ≈ are worked out from the molar mass of the structure shown.
Legend:
Bacillus = experiment: Potency index, ratio of norfloxacin MIC to compound MIC for antimicrobial activity against Bacillus proteus ATCC 13315; format: functional
Bacillus spizizenii = experiment: Antimicrobial activity against Bacillus subtilis ATCC 6633 after 24 hrs by microbroth dilution method; format: functional; conditions: ATCC 6633, 24 h
[1] = Antimicrobial activity against Bacillus proteus ATCC 13315 after 24 hrs by microbroth dilution method; format: functional; conditions: ATCC 13315, 24 h
Saccharomyces cerevisiae = experiment: Antimicrobial activity against Saccharomyces cerevisiae after 24 hrs by microbroth dilution method; format: functional
Escherichia coli [2] = experiment: Antimicrobial activity against Escherichia coli JM109 after 24 hrs by microbroth dilution method; format: functional; conditions: JM109, 24 h
Escherichia coli [3] = experiment: Antimicrobial activity against Escherichia coli DH52 after 24 hrs by microbroth dilution method; format: functional; conditions: DH52, 24 h
Staphylococcus aureus [4] = experiment: Antimicrobial activity against methicillin-resistant Staphylococcus aureus N315 after 24 hrs by microbroth dilution method; format: functional; conditions: N315, 24 h
Staphylococcus aureus [5] = experiment: Antimicrobial activity against Staphylococcus aureus ATCC 25923 after 24 hrs by microbroth dilution method; format: functional; conditions: ATCC 25923, 24 h
Aspergillus flavus = experiment: Antimicrobial activity against Aspergillus flavus ATCC 204304 after 24 hrs by microbroth dilution method; format: functional; conditions: ATCC 204304, 24 h
Candida albicans = experiment: Antimicrobial activity against Candida albicans ATCC 10231 after 24 hrs by microbroth dilution method; format: functional; conditions: ATCC 10231, 24 h
Micrococcus luteus = experiment: Antimicrobial activity against Micrococcus luteus ATCC 4698 after 24 hrs by microbroth dilution method; format: functional; conditions: ATCC 4698, 24 h
Candida = experiment: Antimicrobial activity against Candida mycoderma ATCC 9888 after 24 hrs by microbroth dilution method; format: functional; conditions: ATCC 9888, 24 h
Salmonella typhi = experiment: Antimicrobial activity against Bacillus typhi after 24 hrs by microbroth dilution method; format: functional, Salmonella enterica subsp. enterica serovar Typhi; conditions: Salmonella enterica

O=c1[nH]c(=O)n(Cc2nc3ccccc3n2Cc2cccc(F)c2)cc1F
Ratio (Bacillus): 4
MIC (Bacillus spizizenii): 8 µg/mL (≈ 21.7 µM)
MIC [1]: 2 µg/mL (≈ 5.43 µM)
MIC (Saccharomyces cerevisiae): 4 µg/mL (≈ 10.9 µM)
MIC (Escherichia coli [2]): 64 µg/mL (≈ 174 µM)
MIC (Escherichia coli [3]): 2 µg/mL (≈ 5.43 µM)
MIC (Staphylococcus aureus [4]): 64 µg/mL (≈ 174 µM)
MIC (Staphylococcus aureus [5]): 4 µg/mL (≈ 10.9 µM)
MIC (Aspergillus flavus): 32 µg/mL (≈ 86.9 µM)
MIC (Candida albicans): 16 µg/mL (≈ 43.4 µM)
MIC (Micrococcus luteus): 16 µg/mL (≈ 43.4 µM)
MIC (Candida): 16 µg/mL (≈ 43.4 µM)
MIC (Salmonella typhi): 128 µg/mL (≈ 348 µM)
